Common to all, as to experiment: NCI-60 cell line screen, 48 h
Experiment [1] concerns MDA-MB-435.
For experiment [2], the system named is NCI-H226.
The test system of experiment [3] is A498.
In experiment [4] the test system is HCT-116.
In experiment [5] the test system is SNB-19.
The test system of experiment [6] is LOX IMVI.
The subject of experiment [7] is SN12C.
For experiment [8], the system named is A549.
Experiment [9] relates to OVCAR-5.
In experiment [10] the test system is SW-620.
For experiment [11], the system named is SK-MEL-2.
In experiment [12] the test system is KM12.
In experiment [13] the test system is HCC 2998.
In experiment [14] the test system is MDA-MB-231.
Experiment [15] deals with UACC-257.
The test system of experiment [16] is MDA-N.
Experiment [17] relates to NCI-H460.
In experiment [18] the test system is MOLT-4.
In experiment [19] the test system is CAKI-1.
Experiment [20] has as its system MCF7.

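Cultured in 96-well plates, cells were exposed to test compound for 48 hours across five concentrations. GI50: concentration for 50% inhibition of growth.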 Calls of active or inactive are those of the source. Cut-off read from the data, not from the text of the source: active = GI50 up to about 1.1 µM and inactive = higher. A value given as a limit tells only on which side of the number the result lay.

Take `O=C(c1cccs1)N(Cc1cccnc1)C(=S)N(Cc1cccnc1)C(=O)c1cccs1`: the GI50 is > 100 µM (inactive) in [1]; > 100 µM (inactive) in [2]; 32.3 µM (inactive) in [3]; 45.8 µM (inactive) in experiment [4]; 35.5 µM (inactive) in experiment [5]; 5.5 µM (inactive) in [6]. Also, the GI50 is 32.6 µM (inactive) in experiment [7]; > 100 µM (inactive) in experiment [8]; > 100 µM (inactive) in [9]; > 100 µM (inactive) in [10]; 26.2 µM (inactive) in experiment [11]; 24.4 µM (inactive) in experiment [12]. Besides, the GI50 in [13] is > 100 µM (inactive); in experiment [14] it was > 100 µM (inactive); in [15], > 100 µM (inactive); in experiment [16] it was 33.4 µM (inactive); in [17], > 100 µM (inactive); in [18] it was > 100 µM (inactive). The GI50 was > 100 µM (inactive) in [19] and 4.85 µM (inactive) in experiment [20].
As for `COC(=O)C1=NN2c3ccccc3CN([C@@H](C)c3ccccc3)C(=O)[C@@H]2C1`, the GI50 in experiment [1] is 16.6 µM (inactive); in experiment [2], 54.1 µM (inactive); in experiment [3], 91.8 µM (inactive); in experiment [4], 32.4 µM (inactive); in experiment [5], 39.6 µM (inactive); in experiment [6], 25.5 µM (inactive). Also, the GI50 in experiment [7] was 56.1 µM (inactive); in experiment [8], 31.4 µM (inactive); in [9], 52.1 µM (inactive); in experiment [10], 87.3 µM (inactive); in [11], 28.7 µM (inactive); in experiment [12] it was 21.2 µM (inactive). Moreover, the GI50 is 48.2 µM (inactive) in experiment [13]; 57 µM (inactive) in [14]; 30.5 µM (inactive) in [15]; 28.3 µM (inactive) in [16]; 58.3 µM (inactive) in experiment [17]; 15 µM (inactive) in [18]. The GI50 was 23.2 µM (inactive) in [19] and 34.8 µM (inactive) in [20].
As to `CC(C)CCNC(=O)c1ccc(CNC(=O)/C=C/c2ccc3ccccc3c2)cc1`, the GI50 in experiment [1], in experiment [2], in [3], in experiment [4], in experiment [5] and in [6] was > 100 µM (inactive) each time. For the same molecule, the GI50 in experiment [7], in experiment [8], in experiment [9], in experiment [10], in experiment [11] and in experiment [12] was > 100 µM (inactive) throughout. Besides, the GI50 in experiment [13], in experiment [14], in experiment [15], in experiment [16], in [17] and in experiment [18] was > 100 µM (inactive) throughout. Also, the GI50 in [19] and in experiment [20] was > 100 µM (inactive) throughout.
With `CC(=N\N)/C(C)=N/N=C(C)/C(C)=N/N=C(C)/C(C)=N/N`, the GI50 in [1], in experiment [2], in experiment [3], in experiment [4], in experiment [5] and in experiment [6] was > 100 µM (inactive) in each case. The GI50 in [7], in experiment [8], in experiment [9], in experiment [10], in experiment [11] and in experiment [12] was > 100 µM (inactive) each time. In addition, the GI50 in experiment [13] is > 100 µM (inactive); in [14] it was > 100 µM (inactive); in experiment [15], > 100 µM (inactive); in experiment [16], > 100 µM (inactive); in experiment [17], > 100 µM (inactive); in [18], 0.1 µM (active). Besides, the GI50 in [19] and in [20] was > 100 µM (inactive) in each case.
For `Cn1c2ccc(Cl)cc2c2ccc3c(c21)C(=O)C=CC3=O`, the GI50 in [1], in experiment [2], in [3], in [4], in [5] and in experiment [6] was > 10 µM (inactive) in each case. Also, the GI50 in experiment [7], in experiment [8], in experiment [9], in experiment [10], in experiment [11] and in experiment [12] was > 10 µM (inactive) throughout. Moreover, the GI50 was > 10 µM (inactive) in experiment [13]; > 10 µM (inactive) in experiment [14]; > 10 µM (inactive) in experiment [15]; > 10 µM (inactive) in experiment [16]; > 10 µM (inactive) in experiment [17]; 6.44 µM (inactive) in [18]. Also, the GI50 in experiment [19] and in [20] was > 10 µM (inactive) throughout.
Consider `CC(=O)NC1C(OCc2ccccc2)OC(CO)C(O)C1OC(C)C(=O)NC(C)C(=O)NC(CCC(=O)NCCCNc1c2ccccc2nc2cccc([N+](=O)[O-])c12)C(N)=O` (stereo not given), for which the GI50 is 1.16 µM (inactive) in experiment [1]; 2.79 µM (inactive) in experiment [2]; 2.01 µM (inactive) in [3]; 0.263 µM (active) in experiment [4]; 3.67 µM (inactive) in [5]; 3.65 µM (inactive) in experiment [6]. In addition, the GI50 is 1.02 µM (active) in experiment [7]; 1.43 µM (inactive) in experiment [8]; 2.24 µM (inactive) in [9]; 0.229 µM (active) in experiment [10]; 1.32 µM (inactive) in [11]; 2.57 µM (inactive) in experiment [12]. Moreover, the GI50 in experiment [13] is 1.14 µM (inactive); in experiment [14], 1.36 µM (inactive); in [15], 2 µM (inactive); in experiment [16], 1.25 µM (inactive); in experiment [17] it was 0.258 µM (active); in [18], 3.27 µM (inactive). For the same molecule, the GI50 is 1.7 µM (inactive) in [19] and 0.64 µM (active) in experiment [20].
With `Cn1cnc(N2CCCC2)c(C#N)c1=O`, the GI50 in [1], in experiment [2], in experiment [3], in experiment [4], in experiment [5] and in experiment [6] was > 100 µM (inactive) in each case. Moreover, the GI50 in experiment [7], in experiment [8], in experiment [9], in experiment [10], in [11] and in experiment [12] was > 100 µM (inactive) throughout. Also, the GI50 in [13], in experiment [14], in [15], in [16], in experiment [17] and in experiment [18] was > 100 µM (inactive) each time. Moreover, the GI50 in experiment [19] and in experiment [20] was > 100 µM (inactive) each time.
`Cc1c(N)nc(C(CC(N)=O)NCC(N)C(N)=O)nc1C(=O)NC(C(=O)NC(C)C(O)C(C)C(=O)NC(C(=O)NCCc1nc(-c2nc(C(=O)NCCCNC(C)c3ccccc3)cs2)cs1)C(C)O)C(OC1OC(CO)C(O)C(O)C1OC1OC(CO)C(O)C(OC(N)=O)C1O)c1c[nH]cn1` (stereo not given): the GI50 in [1] was > 50 µM (inactive); in [2], 0.184 µM (active); in experiment [3] it was 1.69 µM (inactive); in [4], 0.328 µM (active); in experiment [5] it was 8.39 µM (inactive); in experiment [6], 0.108 µM (active). Further, the GI50 is 2.07 µM (inactive) in experiment [7]; 0.847 µM (active) in experiment [8]; 5.96 µM (inactive) in experiment [9]; 17.7 µM (inactive) in [10]; 16.8 µM (inactive) in [11]; 16.6 µM (inactive) in [12]. Besides, the GI50 in experiment [13] was 21.6 µM (inactive); in [14] it was > 50 µM (inactive); in experiment [15], 22.3 µM (inactive); in [16], > 50 µM (inactive); in experiment [17] it was 0.0482 µM (active); in experiment [18] it was 1.83 µM (inactive). Moreover, the GI50 in experiment [19] was 0.0258 µM (active); in [20], 4.4 µM (inactive).
As for `CSc1nc(=S)[nH]c2[nH]nc(C)c12`, the GI50 in experiment [1] is > 100 µM (inactive); in experiment [2] it was > 100 µM (inactive); in experiment [3] it was 73.3 µM (inactive); in experiment [4], > 100 µM (inactive); in experiment [5], > 100 µM (inactive); in experiment [6], > 100 µM (inactive). Also, the GI50 in [7], in experiment [8], in [9], in experiment [10], in experiment [11] and in experiment [12] was > 100 µM (inactive) throughout. In addition, the GI50 in experiment [13], in experiment [14], in experiment [15], in experiment [16], in [17] and in experiment [18] was > 100 µM (inactive) each time. In addition, the GI50 in experiment [19] and in experiment [20] was > 100 µM (inactive) in each case.
On to `Cc1ccsc1/C(S)=N\c1ccc(Cl)c(/C=N/OC(C)(C)C)c1`, for which the GI50 in experiment [1] is 53.3 µM (inactive); in [2], 24.7 µM (inactive); in experiment [3] it was 20.2 µM (inactive); in [4] it was 16.4 µM (inactive); in experiment [5], > 100 µM (inactive); in experiment [6], 18.6 µM (inactive). In addition, the GI50 is 27 µM (inactive) in experiment [7]; 30.9 µM (inactive) in experiment [8]; > 100 µM (inactive) in [9]; 35.3 µM (inactive) in experiment [10]; 41.8 µM (inactive) in experiment [11]; 25.1 µM (inactive) in [12]. The GI50 is 18.5 µM (inactive) in [13]; 21.2 µM (inactive) in [14]; 17.2 µM (inactive) in experiment [15]; 43.1 µM (inactive) in experiment [16]; 20.3 µM (inactive) in [17]; 12.3 µM (inactive) in experiment [18]. Further, the GI50 in [19] is 29 µM (inactive); in [20], 35.2 µM (inactive).

For the origin of these results see ChEMBL document CHEMBL1201862, “PubChem BioAssay data set” (2004).
